In patent publication US8362081B2, “Methods for treating hemorrhagic conditions” (priority 2009, dated 2013):

Legend:
liver wound bleeding = test: Rabbit liver hemorrhage: bleeding time and extent; type: in vivo; conditions: 0.5 KU/kg injected via ear vein at wounding, vs physiological saline control
Experimental: Healthy rabbits having a weight of 2-2.5 kg were distributed randomly into four groups consisting of 6 rabbits per group. The rabbits in each group were fed only water for the twelve-hour period prior to operation. Each rabbit was anaesthetized by receiving an injection of sodium pentobarbital (30 mg/kg) in the abdominal cavity. An incision was made in the upper abdominal cavity of each animal and a piece of the liver was removed leaving a wound 2 cm in length, 1 cm in width and 0.5 cm in height.
At the time of wounding, the animals received by injection (2 ml/kg) via an ear vein one of following four compositions suspended in physiological saline: control, 0.5 KU/kg Reptilase, 25 mg/kg Sodium Dencichine, or 1 mg/kg solid dispersion composition of Dencichine prepared according to Example 1. Following the injection, the bleeding time and extent was recorded for each rabbit until the liver wound stopped bleeding.

acute gastric bleeding = test: Gastrorrhagia of rats: acute gastric bleeding time and extent; type: in vivo, Sprague-Dawley rat; conditions: rat gastric wound; 0.5 KU/kg via femoral vein 30 min before wounding; vs physiological saline control
Experimental: Healthy Sprague-Dawley rats having a weight of 180-220 g were distributed randomly into four groups consisting of 10 rats per group. The rats in each group were fed only water for the twelve-hour period prior to operation. Each rat was anaesthetized by receiving an injection of sodium pentobarbital (30 mg/kg) in the abdominal cavity. An incision was made in the upper abdominal cavity of each animal and the stomach exposed to air and minced along the greater curvature. The stomach was vacated for each animal and cleaned with sterile cotton swab.
The animals received by injection (1 ml/100 g) via a femoral vein one of following four compositions suspended in physiological saline: control, 0.5 KU/kg Reptilase, 25 mg/kg Sodium Dencichine, or 1 mg/kg solid dispersion composition of Dencichine prepared according to Example 1. Thirty minutes following the injection, one piece of the gastric body from each animal was excised using biopsy forceps to establish acute gastric bleeding. The bleeding time and extent was recorded for each rat until the wound stopped bleeding.

tail wound bleeding = test: Tail bleeding time of mouse; type: in vivo, ICR mouse; conditions: mouse tail cut; 0.5 KU/kg via tail vein 30 min before cut; vs physiological saline control
Experimental: Healthy male ICR mice having a weight of 18-22 g were distributed randomly into […] consisting of 10 mice per group. The animals received by injection (0.1 ml/10 g) via the tail vein one of following four compositions suspended in physiological saline: control, 0.5 KU/kg Reptilase, 25 mg/kg Sodium Dencichine, or 1 mg/kg solid dispersion composition of Dencichine prepared according to Example 1. Thirty minutes following injection the tail of each mouse was cut 0.5 cm from the tail tip. The cut tail wound bleeding of each mouse was monitored by scrubbing the tail tip with a filter paper at timed intervals (30 s, 60 s, and every 10 s thereafter) until blood could not be seen on the filter paper.

Reptilase: Haemostatic comparator injected at 0.5 KU/kg
significantly shortened: time and extent of the wound bleeding (liver wound bleeding) | time and extent of the wound bleeding (acute gastric bleeding) | time required to stop the tail wound bleeding (tail wound bleeding)
